Measured values: publication PMC7534320 (Journal of Enzyme Inhibition and Medicinal Chemistry, 2020)
In brackets after ≈: the same amount, converted by molar mass. Like-named read-outs stand apart in the source and are kept apart here.

Experiments:
[1] = PAMPA gastrointestinal (GIT) permeability; assay type: in vitro ADME
Text: (§1) In vitro gastrointestinal (GIT) and blood–brain barrier (BBB) permeability was studied using the PAMPA model (Parallel Artificial Membrane Permeability Assay). The sandwich consists of two 96-well microfilter plates. The PAMPA system contains two chambers: the donor at the bottom and the acceptor chamber at the top. The chambers are separated by a 120-μm-thick microfilter disc coated with a 20% (w/v) dodecane solution of a lecithin mixture (Pion, Inc.). Before adding samples to the donor compartments, the samples were dissolved in DMSO. The donor solution was adjusted to pH ≈ 6.8 for GIT application and to pH ≈ 7.4 for BBB application using 0.5 M NaOH. The plates were combined and then incubated for 3 h for GIT model and 4 h for BBB model in a humidity-saturated atmosphere at the temperature set at 310 K. The apparent permeability coefficient (Papp) was calculated according to the following equation: Papp=−ln(1−CA/Cequilibrium)/S×(1/VD+1/VA)×t where VD – donor volume, VA – acceptor volume, Cequilibrium – equilibrium concentration Cequilibrium=CD×VD+ CA×VA/VD+VA, S – membrane area, t – incubation time (in seconds).

[2] = PAMPA blood–brain barrier (BBB) permeability; assay type: in vitro ADME
Text: as §1
Compounds with high permeability have the Papp value at the level >4.0 × 10^−6 cm s^−1 [28].

[3] = Antioxidant activity, DPPH radical reaction; assay type: biochemical; details: free substance; linear regression
Description: The antioxidant activity was evaluated using the DPPH radical reaction. The investigation of antioxidant properties was performed spectrophotometrically, according to Studzińska-Sroka’s modifications. […] 25.0 µL of DPPH solution was mixed with 175.0 µL of studied solutions in a 96-well plate, and then the plate was shaken and incubated in darkness for half an hour at room temperature. Subsequently, the absorbance (A) was measured at the wavelength set at 517 nm against the blank (the mixture of DPPH solution and methanol). The inhibition of the DPPH radical by the studied samples was calculated due to the following equation: A=Ao − Ai/Ao x 100% where Ao is the absorbance of the control sample, Ai is the absorbance of studied samples. Every determination was repeated six times. As a reference, vitamin C was used. IC50 values, which determine the concentration of the substance that inhibits the formation of DPPH by 50%, were determined by linear regression analysis.

C. difficile ATCC 9689 = experiment: Agar well diffusion technique; assay type: cell-based; details: 25 mg/mL dissolved in methanol and filtered
C. butyricum ATTC 860 = assay type: cell-based; details: 25 mg/mL dissolved in methanol and filtered
[4] = test system: L. monocytogenes ATCC 7644; experiment: Agar well diffusion technique; assay type: cell-based; details: 25 mg/mL dissolved in methanol and filtered
B. subtillis ATCC 238557 = experiment: Agar well diffusion technique; assay type: cell-based; details: 25 mg/mL dissolved in methanol and filtered
E. faecalis ATTC 29212 = experiment: Agar well diffusion technique; assay type: cell-based; details: 25 mg/mL dissolved in methanol and filtered
S. aureus ATCC 25923 = experiment: Agar well diffusion technique; assay type: cell-based; details: 25 mg/mL dissolved in methanol and filtered
S. pyrogenes ATCC 19615 = experiment: Agar well diffusion technique; assay type: cell-based; details: 25 mg/mL dissolved in methanol and filtered
E. coli ATCC 25922 = experiment: Agar well diffusion technique; assay type: cell-based; details: 25 mg/mL dissolved in methanol and filtered
K. pneumoniae ATCC 31488 = experiment: Agar well diffusion technique; assay type: cell-based; details: 25 mg/mL dissolved in methanol and filtered
P. mirabilis ATCC 12453 = experiment: Agar well diffusion technique; assay type: cell-based; details: 25 mg/mL dissolved in methanol and filtered
[5] = test system: S. typhimurium ATCC 14028; experiment: Agar well diffusion technique; assay type: cell-based; details: 25 mg/mL dissolved in methanol and filtered
[6] = test system: P. aereuginosa ATCC 27853; experiment: Agar well diffusion technique; assay type: cell-based; details: 25 mg/mL dissolved in methanol and filtered
E. aerogenes ATCC 13048 = experiment: Agar well diffusion technique; assay type: cell-based; details: 25 mg/mL dissolved in methanol and filtered
C. krusei ATCC 14243 = experiment: Agar well diffusion technique; assay type: cell-based; details: 25 mg/mL dissolved in methanol and filtered
C. albicans ATTC 10231 = experiment: Agar well diffusion technique; assay type: cell-based; details: 25 mg/mL dissolved in methanol and filtered
[7] = piperine after incorporation into the cavity of β-cyclodextrin; cited from earlier work

O=C(/C=C/C=C/c1ccc2c(c1)OCO2)N1CCCCC1 [Piperine, piperine]
Papp at 3 h ([1]; donor pH ≈ 6.8, 3 h, 310 K, read-out: Papp of piperine, GIT PAMPA): 19 ×10⁻⁶ cm/s
Papp at 4 h ([2]; PAMPA, donor pH ≈ 7.4, 4 h, 310 K, read-out: Papp of piperine, BBB PAMPA): 11.9 ×10⁻⁶ cm/s
permeability classification, BBB PAMPA ([2]; Papp > 4.0 × 10^−6 cm s^−1 = high permeability): well permeable
IC50 DPPH [3]: 38.945 mg/mL (≈ 136 mM)
Inhibition zone (mm) – Agar well diffusion technique (C. difficile ATCC 9689): 3.5 mm
Inhibition zone (mm) – Agar well diffusion technique (C. butyricum ATTC 860): 5.5 mm
Inhibition zone (mm) – Agar well diffusion technique [4]: 5.0 mm
Inhibition zone (mm) – Agar well diffusion technique (B. subtillis ATCC 238557): 7.0 mm
Inhibition zone (mm) – Agar well diffusion technique (E. faecalis ATTC 29212): 9.0 mm
Inhibition zone (mm) – Agar well diffusion technique (S. aureus ATCC 25923): 3.0 mm
Inhibition zone (mm) – Agar well diffusion technique (S. pyrogenes ATCC 19615): 2.5 mm
Inhibition zone (mm) – Agar well diffusion technique (E. coli ATCC 25922): 2.0 mm
Inhibition zone (mm) – Agar well diffusion technique (K. pneumoniae ATCC 31488): 2.0 mm
Inhibition zone (mm) – Agar well diffusion technique (P. mirabilis ATCC 12453): 1.0 mm
Inhibition zone (mm) – Agar well diffusion technique [5]: 1.5 mm
Inhibition zone (mm) – Agar well diffusion technique [6]: 1.5 mm
Inhibition zone (mm) – Agar well diffusion technique (E. aerogenes ATCC 13048): 1.0 mm
Inhibition zone (mm) – Agar well diffusion technique (C. krusei ATCC 14243): 2.5 mm
Inhibition zone (mm) – Agar well diffusion technique (C. albicans ATTC 10231): 2.5 mm
increase of solubility of piperine [7]: about 16 folds

COc1cc(/C=C/C(=O)CC(=O)/C=C/c2ccc(O)c(OC)c2)ccc1O [Curcumin, Diferuloylmethane]
permeability classification, GIT PAMPA [1]: well permeable
Papp at 3 h ([1]; pH 6.8): 3.46 ×10⁻⁶ cm/s
permeability classification, BBB PAMPA ([2]; PAMPA): well permeable
Papp at 4 h ([2]; PAMPA, pH 7.4): 31.1 ×10⁻⁶ cm/s
Inhibition zone (mm) – Agar well diffusion technique (C. difficile ATCC 9689): 6.5 mm
Inhibition zone (mm) – Agar well diffusion technique (C. butyricum ATTC 860): 5.5 mm
Inhibition zone (mm) – Agar well diffusion technique [4]: 5.0 mm
Inhibition zone (mm) – Agar well diffusion technique (B. subtillis ATCC 238557): 8.5 mm
Inhibition zone (mm) – Agar well diffusion technique (E. faecalis ATTC 29212): 10.5 mm
Inhibition zone (mm) – Agar well diffusion technique (S. aureus ATCC 25923): 4.0 mm
Inhibition zone (mm) – Agar well diffusion technique (S. pyrogenes ATCC 19615): 5.0 mm
Inhibition zone (mm) – Agar well diffusion technique (E. coli ATCC 25922): 3.0 mm
Inhibition zone (mm) – Agar well diffusion technique (K. pneumoniae ATCC 31488): 2.5 mm
Inhibition zone (mm) – Agar well diffusion technique (P. mirabilis ATCC 12453): 3.0 mm
Inhibition zone (mm) – Agar well diffusion technique [5]: 5.5 mm
Inhibition zone (mm) – Agar well diffusion technique [6]: 2.5 mm
Inhibition zone (mm) – Agar well diffusion technique (E. aerogenes ATCC 13048): 2.5 mm
Inhibition zone (mm) – Agar well diffusion technique (C. krusei ATCC 14243): 2.0 mm
Inhibition zone (mm) – Agar well diffusion technique (C. albicans ATTC 10231): 4.5 mm

O=C1O[C@H]([C@@H](O)CO)C(O)=C1O [Vitamin C]
IC50 DPPH [3]: 0.066 mg/mL (≈ 0.375 mM)
